From ChEMBL document CHEMBL3352581, “Structure-activity relationships of non-opioid [des-Arg(7)]-dynorphin A analogues for bradykinin receptors” (Bioorg Med Chem Lett, 2014)
Where a SMILES comes first, the peptide text is derived from it. [ ]: non-standard residue; d: D form. Nle = CCCC[C@H](N)C(=O)O

Tests used:
[1] = Retention time of the compound by HPLC method; format: physicochemical
[2] = Displacement of [3H]DALKD from bradykinin receptor in rat brain membranes by competition assay; format: cell membranes, Membrane
[3] = Displacement of [3H]DALKD from bradykinin receptor in rat brain membranes by competition assay at pH 6.8; format: cell membranes, Membrane
[4] = Displacement of [3H]DALKD from bradykinin receptor in rat brain membranes by competition assay at pH 7.4; format: cell membranes, Membrane

Compound | Retention_time [1] [min] | IC50 [2] [nM] | pIC50 [2] | pIC50 [3] | pIC50 [4] | IC50 [3] [nM] | IC50 [4] [nM]
CCCC[C@H](NC(=O)[C@H](CCCNC(=N)N)NC(=O)[C@H](CC(C)C)NC(=O)[C@@H](N)Cc1ccccc1)C(=O)N[C@@H](CCCNC(=N)N)C(=O)N1CCC[C@H]1C(=O)N[C@@H](CCCCN)C(=O)O (H-FLR[Nle]RPK-OH) | 11.4 | 91 | 7.04 | – | – | – | –
H-FLRIRPKLK-OH | 9.7 | – | – | 7.2 | 6.95 | – | –
H-FLRIR-OH | 9.6 | – | – | 6.12 | 5.67 | – | –
H-GFLRIRPK-OH | 9.5 | – | – | – | 6.88 | – | –
H-GFLRIRPKLK-OH | 10.4 | – | – | 7.58 | 7.39 | – | –
H-FLRIRRPK-OH | – | 74 | 7.13 | – | – | – | –
H-LRIRPKLK-OH | – | – | – | 7.52 | 7.17 | 30 | 68
H-GGFLRIRPKLK-OH | 10.4 | – | – | 7.39 | – | – | –
H-FLARIRPK-OH | 11 | 260 | 6.58 | – | – | – | –
CCCC[C@H](NC(=O)[C@H](CCCCN)NC(=O)[C@@H]1CCCN1C(=O)[C@H](CCCCN)NC(=O)[C@H](CCCC)NC(=O)[C@H](CCCCN)NC(=O)[C@@H](N)CCCC)C(=O)N[C@@H](CCCCN)C(=O)O (H-[Nle]K[Nle]KPK[Nle]K-OH) | – | 91 | 7.04 | – | – | – | –
H-LRAIRPKLK-OH | 9.2 | – | 6.91 | – | – | – | –
H-GFLRIR-OH | 8.2 | – | – | 6.56 | 6.21 | – | –
CC[C@H](C)[C@H](NC(=O)[C@H](CCCNC(=N)N)NC(=O)[C@H](CC(C)C)NC(=O)[C@@H](N)Cc1ccccc1)C(=O)N[C@@H](CCCNC(=N)N)C(=O)N1CCC[C@H]1C(=O)N[C@@H](CCCCN)C(=O)O | – | – | – | – | – | – | 190
CCCC[C@H](NC(=O)[C@H](CCCNC(=N)N)NC(=O)[C@H](CCCC)NC(=O)[C@@H](N)Cc1ccccc1)C(=O)N[C@@H](CCCNC(=N)N)C(=O)N1CCC[C@H]1C(=O)N[C@@H](CCCNC(=N)N)C(=O)O (H-F[Nle]R[Nle]RPR-OH) | – | 87 | 7.06 | – | – | – | –
CC[C@H](C)[C@H](NC(=O)[C@H](CCCNC(=N)N)NC(=O)[C@@H](N)CC(C)C)C(=O)N[C@@H](CCCNC(=N)N)C(=O)O (H-LRIR-OH) | 7 | – | – | 5.66 | 5.03 | – | –
H-LRIRPK-OH | 6.3 | – | – | 6.71 | 6.74 | – | –
CCCC[C@H](NC(=O)[C@@H](N)Cc1ccccc1)C(=O)N[C@@H](CCCNC(=N)N)C(=O)N[C@H](C(=O)N[C@@H](CCCNC(=N)N)C(=O)N1CCC[C@H]1C(=O)N[C@@H](CCCCN)C(=O)O)[C@@H](C)CC | 10.5 | – | – | – | – | – | –
H-LARIRPKLK-OH | 9.2 | – | 6.99 | – | – | – | –
H-FLRAIRP-OH | 10.3 | 740 | 6.13 | – | – | – | –
